Experimental data from article PMC1458514 (Nucleic Acids Research, 2006).

Tests used:
[1] = target: nucleoside diphosphate kinase (NDK A) (Homo sapiens, UniProt P15531); test: pAp-agarose affinity chromatography of HeLa extract, LC-MS/MS; assay type: cell-based
Oligoribonuclease (Orn) = target: T1, Oligoribonuclease (Orn) (Escherichia coli, UniProt P0A784); test: Cy5-RNA 5mer degradation assay; assay type: biochemical
T1 sequence (P0A784 2-181): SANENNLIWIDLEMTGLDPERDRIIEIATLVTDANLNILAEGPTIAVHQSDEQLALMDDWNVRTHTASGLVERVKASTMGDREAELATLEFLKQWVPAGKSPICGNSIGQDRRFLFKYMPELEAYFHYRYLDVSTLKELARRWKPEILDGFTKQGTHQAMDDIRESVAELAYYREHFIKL

[2] = target: T2, small fragment nuclease (Sfn) (Homo sapiens, UniProt Q9Y3B8); test: Cy5-RNA 5mer degradation assay; assay type: biochemical
T2 sequence (Q9Y3B8 26-237): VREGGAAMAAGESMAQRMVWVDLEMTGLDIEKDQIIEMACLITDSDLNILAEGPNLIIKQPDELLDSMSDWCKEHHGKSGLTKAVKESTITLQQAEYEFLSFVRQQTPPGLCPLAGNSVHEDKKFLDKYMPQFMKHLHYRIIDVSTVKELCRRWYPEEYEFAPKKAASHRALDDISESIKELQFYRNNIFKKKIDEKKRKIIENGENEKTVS

nucleoside diphosphate kinase (NDK A), sequence (P15531 2-152): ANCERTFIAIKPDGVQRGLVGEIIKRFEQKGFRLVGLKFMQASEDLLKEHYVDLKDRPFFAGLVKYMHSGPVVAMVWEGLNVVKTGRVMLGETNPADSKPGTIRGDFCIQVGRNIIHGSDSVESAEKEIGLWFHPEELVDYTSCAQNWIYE

Cy5-RNA 5mer degradation assay (gel) with purified Orn; also pAp-agarose affinit (Oligoribonuclease (Orn)): ~ 20 µM
Cy5-RNA 5mer degradation assay (gel) with purified Sfn; also pAp-agarose capture [2]: ~ 20 µM
Compound: Nc1ncnc2c1ncn2[C@@H]1O[C@H](COP(=O)(O)O)[C@@H](OP(=O)(O)O)[C@H]1O [pAp]
pAp-agarose affinity chromatography of HeLa extract, LC-MS/MS [1]: The second human enzyme we found to bind to pAp is NDK.
